# Experimental data: patent US8394355B2, “Use of UTP for the diagnosis of stenoses and other conditions of restricted blood flow” (P2 science Aps, priority 2009, dated 2013)
# “And” between values parts separate entries of the source, which are not always exact repeats. Equal values may be shown once. “Also recorded” adds a separate entry of the source. Read-outs that look alike come from different tables or passages of the source.
# Key:
# Format in all cases: in vivo
# [1] = test system: coronary arteries in humans with coronary artery disease; assay: FFR during continuous intracoronary infusion via microcatheter (Example 3); settings: for % of patients with FFR ≦ 0.8 / adverse effects during IC continuous infusion: microcatheter study; for adverse effects during IC continuous infusion: 10 patients; for optimal dose for achieving maximal coronary hyperemia and thereby the lowest FFR: FIG. 5
# Excerpt: As described previously, inducing stable maximal coronary hyperemia is essential for measurement of fractional flow reserve (FFR). This second experiment in a similar patient group evaluated the differential efficacy of intracoronary (IC) continuous adenosine infusion vs. IC continuous uridine triphosphate (UTP) infusion via a microcatheter for inducing steady state maximal coronary hyperemia. The present study was designed to evaluate the safety and effectiveness of the equimolar concentrations of UTP vs. adenosine infusion for use in the FFR method. Time to achievement of steady-state, impact of maximal hyperemia (lowest FFR) for the different compounds and side effects were recorded in 10 patients with intermediate coronary lesions. FFR was measured consecutively by IC continuous adenosine or UTP infusion using a microcatheter to bypass the proximal pressure transducer. The IC microcatheter (Progreat Microcatheter System, Terumo, Japan) used was positioned at the coronary ostium, and FFR was then measured by increasing IC continuous adenosine or UTP infusion rates in equimolar concentrations from 10 to 400 μg/min via the microcatheter.
# After femoral catheterization, coronary angiography was performed with the standard femoral approach. Heparin was administered according to standard procedures.
# Intracoronary nitroglycerin (0.2-0.3 mg) was administered before the control angiograms were made in the microcatheter study. Heart rate and arterial pressure were continuously monitored throughout the procedure. After a guiding catheter (5F catheter, Cordis Corp.) without side holes was positioned at the coronary ostium, coronary angiograms were obtained from multiple projections. Quantitative coronary analysis was performed by using an independent analyzer blinded to the results of FFR using a computer-assisted, automated computerized edge-detection algorithm (Siemens Medical System). The external diameter of the contrast-filled catheter was used as a calibration standard. Minimal luminal diameter, vessel diameter of the reference segment, and the percent diameter stenosis at end diastole were measured from the worst-view trace. After coronary angiography, a 0.014-in. pressure wire (Combowire, Volcano Corporation, US) was advanced distally to the stenosis through a 6F guiding catheter. In the microcatheter study, an IC bolus injection of nitroglycerin (0.2-0.3 mg) was given before advancing the pressure wire through the stenosis in order to avoid any mechanically-induced coronary vasoconstriction. The pressure wire was externally calibrated and then advanced to the distal tip of the catheter. It was verified whether equal pressure was recorded at both the catheter and the pressure wire. The pressure wire was advanced through the coronary catheter, introduced into the coronary artery, and positioned distal to the stenosis.
# Distal coronary pressure (Pd) and proximal coronary pressure (Pa) were measured at baseline and at maximal hyperemia (adenosine vs. UTP) simultaneously. Fractional flow reserve was calculated by dividing mean Pd by mean Pa during maximal hyperemia. The time to optimal vasodilatation (time needed to reach >90% of the minimal value of Pd/Pa after administration of the adenosine or UTP) was computed in order to assess whether procedure time was prolonged. The hyperemic stimuli were given as follows: an IC continuous infusion of adenosine or UTP in incremental doses of 10, 20, 40, 80, 160, 240, […] and 400 μg/min, in both the left and right coronary artery depending upon lesion anatomy. The dosages were increased stepwise by IC continuous infusion with the microcatheter where the stepwise dose increase was recorded continuously without breaks. After each stepwise increase, FFR and CFR were recorded automatically. The next hyperemic stimulus UTP vs adenosine was given when Pa, Pd, and heart rate returned to their baseline values.
# [2] = Kinetics of UTP in the circulation; settings: for half-life: in the circulation, read-out: terminal half-life (converted)
# [3] = test system: infarct area during acute myocardial infarction; assay: ADP or UTP infusion during myocardial infarction in pigs (unpublished); settings: infused during acute myocardial infarction, unpublished results
# Excerpt: This is clearly in contrast to previous findings, but is more clinically relevant as most cardiac patients are older. […] This conclusion is also supported by another study by the present inventor in pigs where ADP or UTP was infused during myocardial infarction. […] Therefore, the previous assumptions in patent application WO 2007/065437 relating to the regulation of purinergic receptor activity to modulate vascular tone, particularly for treating hemodynamic conditions by overriding vasoconstriction activity, which could potentially have clinical applications for treatment with UTP agonists or antagonists, is incorrect.
SMILES,"FFR Mean ([1]; mean of patients, 10 μg/min)","FFR Mean ([1]; mean, 20 μg/min)","FFR Mean ([1]; mean, 40 μg/min)","FFR Mean ([1]; mean, 80 μg/min)","FFR Mean ([1]; mean, 160 μg/min)","FFR Mean ([1]; mean, 240 μg/min)","FFR Mean ([1]; mean, 320 μg/min)","FFR Mean ([1]; mean, 400 μg/min)",% of patients with FFR ≦ 0.8 ([1]; 80 μg/min (n = 8)),% of patients with FFR ≦ 0.8 ([1]; 160 μg/min (n = 6)),% of patients with FFR ≦ 0.8 ([1]; 320 μg/min (n = 9)),% of patients with FFR ≦ 0.8 ([1]; 400 μg/min (n = 3)),adverse effects during IC continuous infusion [1],optimal dose for achieving maximal coronary hyperemia and thereby the lowest FFR ([1]; microcatheter),also measured
"O=c1ccn([C@@H]2O[C@H](COP(=O)(O)OP(=O)(O)OP(=O)(O)O)C(O)[C@@H]2O)c(=O)[nH]1 (stereo partly shown) [UTP, Uridine 5-triphosphate]",0.84,0.83,0.83,0.78,0.79,0.79,0.79,0.79,62 % of patients,50 % of patients,44 % of patients,33 % of patients,None of the patients had chest pain in the UTP group; also recorded: All patients tolerated UTP without side effects,approximately 80 μg/min,"FFR in comparison to IC adenosine infusion ([1]; P<0.05): significantly lower; steady-stable hyperemia lasted longer compared to adenosine infusion ([1]; in vivo): ~20 s; FFR ([1]; individual patients (row = patient no.), IC continuous infusion 10 μg/min, microcatheter): 0.72 and 0.95 and 0.84; FFR ([1]; individual patients, 20 μg/min): 0.71 and 0.95; FFR ([1]; individual patients, 40 μg/min): 0.72 and 0.95 and 0.83; FFR ([1]; individual patients, 80 μg/min): 0.73 and 0.79 and 0.88 and 0.56 and 0.71 and 0.97 and 0.83; FFR ([1]; individual patients, 160 μg/min): 0.90 and 0.73 and 0.79 and 0.86 and 0.56 and 0.71 and 0.92 and 0.83; FFR ([1]; individual patients, 240 μg/min): 0.89 (2×) and 0.73 and 0.79 and 0.87 and 0.55; FFR ([1]; individual patients, 400 μg/min): 0.90 and 0.92 and 0.56; induction time to optimal coronary hyperemia ([1]; versus IC continuous adenosine infusion): shorter; half-life ([2]; blood (the circulation)): ~20 s; time to peak ([2]; in vivo): 5 s; half-life ([2]; in vivo): 20 s; effect on infarct area [3]: increased the infarct area"
Nc1ncnc2c1ncn2[C@@H]1O[C@H](CO)[C@@H](O)[C@H]1O [adenosine],0.90,0.88,0.86,0.84,0.82,0.81,0.82,0.82,37 % of patients,33 % of patients,44 % of patients,33 % of patients,nearly all felt angina in the adenosine group; also recorded: some patients had a transient second degree A-V block; also recorded: nearly all patients experienced side effects,~240 µg/min,"FFR ([1]; individual patients (row = patient no.), IC continuous infusion 10 μg/min, microcatheter, listed as ADO): 0.81 and 0.94 and 0.86 and 0.99; FFR ([1]; individual patients, 20 μg/min, listed as ADO): 0.75 and 0.94 and 0.95; FFR ([1]; individual patients, 40 μg/min, listed as ADO): 0.73 and 0.94 (2×) and 0.82; FFR ([1]; individual patients, 80 μg/min, listed as ADO): 0.83 and 0.95 and 0.76 and 0.71 and 0.94 and 0.82 and 0.88; FFR ([1]; individual patients, 160 μg/min, listed as ADO): 0.80 and 0.95 (2×) and 0.60 and 0.68 and 0.85 and 0.96 and 0.75; FFR ([1]; individual patients, 240 μg/min, listed as ADO): 0.81 and 0.94 and 0.60 and 0.87 and 0.91 and 0.71; FFR ([1]; individual patients, 400 μg/min, listed as ADO): 0.56 and 1.01 and 0.89"
